Paper PMC10119282, “Molecular characterization of AIFM2/FSP1 inhibition by iFSP1-like molecules” (Cell Death & Disease, 2023)

Experiments:
hFSP1 WT = biological target: T1, hFSP1 WT (Homo sapiens, UniProt Q9BRQ8); assay: Competition MST against pre-formed complex of hFSP1 WT and FSP1-Tracer; assay type: binding; conditions: hFSP1 WT 5 µM and FSP1-Tracer 5 nM pre-formed complex
T1 construct: HisSUMO (cleaved yes); made in house; host or cells: E. coli BL21
T1 sequence (Q9BRQ8 1-373): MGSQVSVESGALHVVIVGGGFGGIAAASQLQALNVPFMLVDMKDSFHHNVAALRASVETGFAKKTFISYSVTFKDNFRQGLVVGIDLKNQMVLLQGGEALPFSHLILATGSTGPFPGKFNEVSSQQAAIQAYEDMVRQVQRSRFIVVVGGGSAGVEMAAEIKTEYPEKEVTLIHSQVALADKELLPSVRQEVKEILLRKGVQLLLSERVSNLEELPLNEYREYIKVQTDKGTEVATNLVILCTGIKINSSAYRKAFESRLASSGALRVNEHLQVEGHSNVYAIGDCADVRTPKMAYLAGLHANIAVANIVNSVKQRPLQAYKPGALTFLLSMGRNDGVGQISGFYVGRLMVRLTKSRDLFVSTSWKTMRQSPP
Experimental: FSP1 (human isoform 1, UniProt Q9BRQ8-1) WT (hFSP1 WT) and F360L (hFSP1 F360L) were expressed in E.coli BL21 as HisSUMO fusion protein. Cells were grown in lysogeny broth medium at 18 °C and induced with 0.5 mM isopropyl-β-thiogalactoside at a cell density A600 of 0.6. Cells were collected after overnight expression by centrifugation, resuspended in lysis buffer ([…], 50 mM Tris-HCl pH 8, 1 mM TCEP, 20 mM imidazole, protease inhibitor, DNase) and lysed by sonication. Cell debris was removed by centrifugation (30,000 × g) at 4 °C for 30 min, after which an IMAC purification was performed. Briefly, a HisTrap crude FF (5 mL) column was equilibrated to lysis buffer, lysates were loaded via the sample pump and the column was then washed with 50 mL lysis buffer. During the elution with a gradient to 100% IMAC elution buffer (300 mM NaCl, 50 mM Tris-HCl pH 8, 1 mM TCEP, 400 mM imidazole) over 100 mL, 5 mL fractions were collected. The pooled fractions were dialysed overnight in the presence of SenP2 SUMO protease at a ratio of 40:1 FSP1:SenP2. Afterwards, a reverse IMAC purification was performed on a HisTrap crude FF (5 mL) column. IMAC eluates were analysed by SDS PAGE and concentrated to 15 mL (hFSP1 WT) and 5 mL (hFSP1 F360L), respectively. […] Pure fractions were pooled (C12—D11 for hFSP1 WT and C7—D4 for hFSP1 F360L), analysed by SDS-PAGE (Supplementary Fig. 4) and concentrated to 5.8 mL at 285.9 µM (hFSP1 WT) and 1.2 mL at 269.5 µM (FSP1 F360L), flash frozen in liquid N2 and stored at −80 °C.
An MST buffer consisting of 1× phosphate-buffered saline (PBS; 137 mM NaCl, 2.7 mM KCl, 10 mM Na2HPO4, 1.8 mM KH2PO4, pH 7.4) with 2 mM reduced L-Glutathione (GSH, Sigma Aldrich, product number G4251) and 0.05% (v/v) Tween 20 (ITW Reagents, molecular biology grade, product number A4974) was used for all MST measurements. […] KD values were determined by applying a Hill-fit to a plot of Fnorm vs. hFSP1 WT/F360L concentration. […]

[1] = system: Pfa1 Gpx4−/− cell line overexpressing hFSP1, mFSP1 and hFSP1 F360L mutants; assay: BODIPY 581/591 C11 oxidation (flow cytometry); assay type: cell-based, murine; conditions: iFSP1 3 µM for 3 h with Lip-1; all conditions
Experimental: In total, 150,000 cells per well were seeded on 6-well dishes one day prior to the experiment. […] Cells were incubated with C11-BODIPY (581/591) (1 μM) for 30 min at 37 °C before they were harvested by trypsinisation. Subsequently, cells were resuspended in 500 μL of fresh PBS (DPBS, Gibco) and analyzed using a 488-nm laser excitation laser and fluorescence recorded on a (FACS Canto II, BD Biosciences). Data was collected from the FL1 detector (C11-BODIPY, Invitrogen) with a 502LP and 530/30 BP filter. At least 20,000 events were analyzed per sample. Data was analyzed using FlowJo Software version 10.8.1.

[2] = system: Pfa1 Gpx4−/− cells overexpressing human FSP1 (hFSP1); assay: Cell viability (Alamar blue), dose-response toxicity in Gpx4-knockout cells expressing hFSP1; assay type: cell-based, murine; conditions: cells treated with iFSP1
Experimental: (§1) Cell Lines. 4-hydroxytamoxifen (TAM)-inducible Gpx4^−/− murine immortalized fibroblasts (Pfa1) were reported previously. These cells harbor two loxP-flanked Gpx4 alleles and stably express TAM inducible Cre recombinase allowing the genetic deletion of Gpx4 at will. For all experiments using Gpx4^−/− the well were treated with 4-hydroxitamoxifen (TAM) 1 µM. All cells were cultured with were cultured in DMEM-high glucose (4.5 g glucose/L) with 10% fetal bovine serum (FBS), Glutamax, and 1% penicillin/streptomycin (Gibco, Thermo Fischer) at 37 °C with 5% CO2 and verified to be negative for mycoplasma.
(§2) Cell viability assays. Alamar Blue method: Cells were seeded on 96-well plates (2000 cells per well) and treated with the compounds RSL3, iFSP1 and (liproxstatin-1) after plating. Cell viability was assessed 48 h (unless stated otherwise) after treatment using Alamar Blue as an indicator of viable cells. Alamar blue solution was made by dissolving of 1 g resazurin sodium salt (Thermo Fischer) in 200 mL sterile PBS and sterile filtrated through a 0.22 µm filter. Stock solutions were stored at 4 °C. The working solution was made freshly by adding 200 µL of the stock solution to 25 mL growth media. After 2–4 h incubation time, viability was estimated by measuring the fluorescence using a 540/35 excitation filter and a 590/20 emission on a Spark® microplate reader (Tecan, Zürich, Switzerland).
Codon-optimized Mus musculus (mouse) FSP1 (NP_001034283.1) and Homo sapiens (Human) FSP1 (NP_001185625.1) were synthesized by IDT as gBlocks^TM and subcloned into p442-IRES-blast vectors. The chimera constructs were generated based on the pairwise alignment between the gene of Homo sapiens (Human) and the Mus musculus (Mouse), all the chimeric constructs contain the murine isoform with one region exchanged to the human isoform. […]

[3] = system: Pfa1 cells overexpressing the mock, hFSP1 WT, hFSP1 F360L and mFSP1 WT; assay: Cell viability response to GPX4 inhibitor RSL3; assay type: cell-based, murine; conditions: Alamar blue viability
Experimental: as §1, §2

[4] = system: Pfa1 Gpx4−/− overexpressing hFSP1 WT, hFSP1 F360L and mFSP1 WT; assay: Cell viability response to N-myristoyltransferase inhibitor IMP-1088; assay type: cell-based, murine
Experimental: as §1, §2

Compound: NC(=O)C1=CN(C2OC(COP(=O)(O)OP(=O)(O)OCC3OC(n4cnc5c(N)ncnc54)C(O)C3O)C(O)C2O)C=CC1 (centres unmarked) [NADH]
- Ki (hFSP1 WT): 455 nM

Compound: Clc1cccc(CN=C2Nc3ccccc3NC23CCNCC3)c1 [Lip-1, liproxstatin-1]
- rescue of the iFSP1-induced increase in BODIPY-C11 signal [1]: could be rescued
- rescue from iFSP1-induced ferroptosis [2]: rescuing the cells

Compound: COC(=O)c1ccc([C@@H]2c3[nH]c4ccccc4c3C[C@@H](C(=O)OC)N2C(=O)CCl)cc1 [RSL3, (1 S,3 R)-RSL3]
- difference in response to the GPX4 inhibitor between cells overexpressing the FSP1 variants [3]: no difference in response

Compound: Cc1nn(C)c(C)c1CCOc1c(-c2ccc3c(c2)c(CN(C)C)nn3C)ccc(F)c1F [IMP-1088]
- ferroptosis induction across FSP1 variants [4]: all mutants undergo ferroptosis similarly
